We go through two sequences from publication PMC3177007 (Cancer gene therapy, 2011).

Data set [1] can be described thus: Zeta potential. It is filed as physicochemical. The following applies: nanoplexes at selected ratios: H3K(+H)4b:siRNA 2.2:1; (RGD-PEG)-H3K(+H)4b/H2K4b/siRNA 3:0.8:1; (RGD-PEG)^4-H3K(+H)4b/H2K4b/siRNA 4:0.8:1.
A short description of data set [2]: Particle size by dynamic light scattering. The class given is physicochemical. The following applies: DLS; H3K(+H)4b:siRNA 2.2:1 (w/w).
Data set [3] deals with MDA-MB-435 cells. Description: Cellular uptake of Cy3 labeled-siRNA nanoplexes, confocal microscopy. The following applies: cells incubated 4 h with nanoplexes. It is filed as cell-based, human.
The conditions of data set [4]: H2K4b alone; ref [18]; cited from earlier work.
For data set [5], the system named is siRNA. In words: Gel retardation assay of HK:siRNA nanoplexes. It is filed as binding. Conditions: H2K4b:siRNA ratio 0.8 to 1 (w:w); data not shown.

Consider KHHHKHHHKHHHHKHHHK [H3K(+H)4b], for which the zeta potential in data set [1] was 37 mV. In addition, the “size of the siRNA nanoplex” value in data set [2] is on record as 149 ± 41 nm. In addition, the “intracellular fluorescence pattern of Cy3 labeled-siRNA” value in data set [3] is “discrete intracellular particles”.

Turning to KHKHHKHHKHHKHHKHHKHK [H2K4b], the “effectiveness as carrier of siRNA in silencing its targets” value in data set [4] is listed as “not an effective carrier”. The “siRNA retained in gel retardation assay” value in data set [5] is reported as 35%.
